Measurements from patent US7687651B2, “Method for the preparation of trans-or cis-diammoniumdichlorodihydroxoplatinum(IV) and the use thereof in the production of pharmaceutical active substances” (priority 2003, dated 2010).

Experiments:
Assay type in all cases: cell-based, human
HT29 Colon carcinoma = test: Growth inhibition test on HT29 cells
Method: (§1) The effect of cis-oxoplatin Ca and cis-oxoplatin was compared on 10 cell lines (Table 4).
(§2) (IC50 values specified in μg/ml; the test was performed as a formazan test).

[1] = tested on: MiaPaCa2 Pancreatic cancer; test: Growth inhibition test on MiaPaCa2 cells; settings: Table 1
Method: (§3) Growth inhibition tests on various human cell lines show the different activities of cisplatin, cis-oxoplatin and oxaliplatin. […] The following Table illustrates the results produced with cisplatin, oxoplatin, carboplatin and oxaliplatin (the values specified are IC50 values in μg/ml, i.e., the concentration where 50% of the cells survive, nd=not determined; res=resistant=non-sensitive or IC50 value cannot be determined at a concentration of up to 40 μg/ml; IC=inhibition concentration).

JVSO Melanoma = test: Growth inhibition test on JVSO cells; settings: Table 1
Method: as §3

Panc1 Pancreatic cancer = test: Growth inhibition test on Panc1 cells; settings: Table 1
Method: as §3

Me128 Melanoma = test: Growth inhibition test on Me128 cells; settings: Table 1
Method: as §3

A498 Renal cells = test: Growth inhibition test on A498 cells; settings: Table 1
Method: as §3

Colo205 Colon carcinoma = test: Growth inhibition test on Colo205 cells
Method: as §1, §2

M518 Melanoma = test: Growth inhibition test on M518 cells; settings: Table 1
Method: as §3

PC3 Prostate = test: Growth inhibition test on PC3 cells; settings: for IC50: PC3 Prostate; for % Survival: PC3 cells
Method: as §3

C320DM Colon carcinoma = test: Growth inhibition test on C320DM cells; settings: Table 1
Method: as §3

HOS Osteosarcoma = test: Growth inhibition test on HOS cells; settings: Table 1
Method: as §3

MCF-7 Breast cancer = test: Growth inhibition test on MCF-7 cells; settings: Table 1
Method: as §3

HCT8 Colon carcinoma = test: Growth inhibition test on HCT8 cells; settings: Table 1
Method: as §3

SaOS Osteosarcoma = test: Growth inhibition test on SaOS cells; settings: Table 1
Method: as §3

CC1227 Colon carcinoma = test: Growth inhibition test on CC1227 cells; settings: Table 1
Method: as §3

HCT-15 Colon carcinoma = test: Growth inhibition test on HCT-15 cells; settings: Table 1
Method: as §3

M607 Melanoma = test: Growth inhibition test on M607 cells; settings: Table 1
Method: as §3

BxPC3 Pancreatic cancer = test: Growth inhibition test on BxPC3 cells
Method: as §1, §2

T47D Breast cancer = test: Growth inhibition test on T47D cells
Method: as §1, §2

[2] = tested on: HT29, SW480, SK-OV4, PC3, SIM, CaCO-2, DU145 and CRO2B cells; test: Growth inhibition, IC50 over eight cell lines of Table 2; settings: CaCO-2, DU145, CRO2B
Method: as §3
The activities differ according to the cell line.

Du145 Prostate = test: Growth inhibition test on Du145 cells; settings: for IC50: Du145 Prostate
Method: as §1, §2

SW480 Colon = test: Growth inhibition test on SW480 cells; settings: for IC50: SW480 Colon
Method: as §1, §2

SK-OV4 Ovarian cancer = test: Growth inhibition test on SK-OV4 cells
Method: as §3

SIM Sarcoma = test: Growth inhibition test on SIM cells
Method: as §3
What is seen primarily in children are leukemias, neuroblastomas and Ewing's sarcoma/peripheral neuroectodermal tumors (group of the Ewing family of tumors=EFT). The investigated tumor cell lines include three EFTs (EW-7, SIM and KAL), as well as two neuroblastoma cell lines (NB: LAN1 and LAN5; Los Angeles neuroblastoma=LAN) (see Table 3).

SK-OV3 Ovarian cancer = test: Growth inhibition test on SK-OV3 cells; settings: Table 2
Method: as §3

CRO2B Carcinoid = test: Growth inhibition test on CRO2B cells; settings: for IC50: CRO2B Carcinoid
Method: as §1, §2

U 373 MG Astrocytoma = test: Growth inhibition test on U 373 MG cells; settings: Table 2
Method: as §3

CaCo-2 Colon = test: Growth inhibition test on CaCo-2 cells; settings: for IC50: CaCo-2 Colon
Method: as §1, §2

MDA-MB-435 Breast = test: Formazan test on MDA-MB-435 cells; settings: Table 4
Method: as §1, §2

BT20 Breast = test: Formazan test on BT20 cells; settings: Table 4
Method: as §1, §2

10 cell lines (Table 4) = test: Formazan test, IC50 mean value for all cell lines of Table 4; settings: mean over the 10 cell lines of Table 4
Method: as §1, §2

[3] = Table 1, Colo205 Colon carcinoma
[4] = Table 1, BxPC3 Pancreatic cancer

N.N.O=C([O-])C1(C(=O)[O-])CCC1.[Pt+2] [Carboplatin, carboplatin]
IC50 (HT29 Colon carcinoma; Table 1, HT29 Colon carcinoma): 20 µg/mL
IC50 [1]: 5 µg/mL
IC50 (JVSO Melanoma): res (res=resistant=non-sensitive or IC50 value cannot be determined at a concentration of up to 40 μg/ml)
IC50 (Panc1 Pancreatic cancer): 20 µg/mL
IC50 (Me128 Melanoma): 10 µg/mL
IC50 (A498 Renal cells): res (res=resistant=non-sensitive or IC50 value cannot be determined at a concentration of up to 40 μg/ml)
IC50 (Colo205 Colon carcinoma; [3]): res (res=resistant=non-sensitive or IC50 value cannot be determined at a concentration of up to 40 μg/ml)
IC50 (M518 Melanoma): res (res=resistant=non-sensitive or IC50 value cannot be determined at a concentration of up to 40 μg/ml)
IC50 (PC3 Prostate; Table 1): 10 µg/mL
IC50 (C320DM Colon carcinoma): 10 µg/mL
IC50 (HOS Osteosarcoma): 5 µg/mL
IC50 (MCF-7 Breast cancer): res (res=resistant=non-sensitive or IC50 value cannot be determined at a concentration of up to 40 μg/ml)
IC50 (HCT8 Colon carcinoma): res (res=resistant=non-sensitive or IC50 value cannot be determined at a concentration of up to 40 μg/ml)
IC50 (SaOS Osteosarcoma): 5 µg/mL
IC50 (CC1227 Colon carcinoma): res (res=resistant=non-sensitive or IC50 value cannot be determined at a concentration of up to 40 μg/ml)
IC50 (HCT-15 Colon carcinoma): res (res=resistant=non-sensitive or IC50 value cannot be determined at a concentration of up to 40 μg/ml)
IC50 (M607 Melanoma): 10 µg/mL
IC50 (BxPC3 Pancreatic cancer; [4]): 10 µg/mL

N.N.[Cl][Pt][Cl] [Cisplatin, cisplatin]
IC50 (HT29 Colon carcinoma; Table 1, HT29 Colon carcinoma): 0.3 µg/mL
IC50 [1]: 1.5 µg/mL
IC50 (JVSO Melanoma): 40 µg/mL
IC50 (Panc1 Pancreatic cancer): 1 µg/mL
IC50 (Me128 Melanoma): 0.3 µg/mL
IC50 (A498 Renal cells): 1 µg/mL
IC50 (Colo205 Colon carcinoma; [3]): 10 µg/mL
IC50 (M518 Melanoma): 40 µg/mL
IC50 (PC3 Prostate; Table 1): res (res=resistant=non-sensitive or IC50 value cannot be determined at a concentration of up to 40 μg/ml)
IC50 (C320DM Colon carcinoma): 0.3 µg/mL
IC50 (MCF-7 Breast cancer): 2.5 µg/mL
IC50 (HCT8 Colon carcinoma): 5 µg/mL
IC50 (CC1227 Colon carcinoma): 0.3 µg/mL
IC50 (HCT-15 Colon carcinoma): 0.3 µg/mL
IC50 (M607 Melanoma): 0.3 µg/mL
IC50 (BxPC3 Pancreatic cancer; [4]): 0.6 µg/mL
IC50 (T47D Breast cancer; Table 1, T47D Breast cancer): 0.3 µg/mL

O=C1[O][Pt]2([NH][C@@H]3CCCC[C@H]3[NH]2)[O]C1=O [Oxaliplatin, oxaliplatin]
IC50 (HT29 Colon carcinoma; Table 1, HT29 Colon carcinoma): 20 µg/mL
IC50 [1]: 5 µg/mL
IC50 (JVSO Melanoma): res (res=resistant=non-sensitive or IC50 value cannot be determined at a concentration of up to 40 μg/ml)
IC50 (Panc1 Pancreatic cancer): 5 µg/mL
IC50 (Me128 Melanoma): 10 µg/mL
IC50 (A498 Renal cells): 10 µg/mL
IC50 (Colo205 Colon carcinoma; [3]): 1 µg/mL
IC50 (M518 Melanoma): res (res=resistant=non-sensitive or IC50 value cannot be determined at a concentration of up to 40 μg/ml)
IC50 (C320DM Colon carcinoma): 0.15 µg/mL
IC50 (MCF-7 Breast cancer): res (res=resistant=non-sensitive or IC50 value cannot be determined at a concentration of up to 40 μg/ml)
IC50 (HCT8 Colon carcinoma): res (res=resistant=non-sensitive or IC50 value cannot be determined at a concentration of up to 40 μg/ml)
IC50 (CC1227 Colon carcinoma): 0.2 µg/mL
IC50 (HCT-15 Colon carcinoma): 10 µg/mL
IC50 (M607 Melanoma): 10 µg/mL
IC50 (BxPC3 Pancreatic cancer; [4]): 10 µg/mL
IC50 (T47D Breast cancer; Table 1, T47D Breast cancer): 0.1 µg/mL

[NH2][Pt]([NH2])([O-])([O-])([Cl])[Cl].[Na+].[Na+] [cis-Oxoplatin sodium salt, cis-diammoniumdichlorodihydroxoplatinum(IV) Disodium Salt]
IC50 values of these cells (mean ± spread) [2]: 9.5 ± 8 µg/mL
efficiency compared with cis-oxoplatin (Du145 Prostate; DU145, Na salt versus cis-oxoplatin): less efficient
IC50 (Du145 Prostate; Table 2): 27.0 µg/mL
more effective than cis-oxoplatin (HT29 Colon carcinoma; HT29, Na salt versus cis-oxoplatin): about 70%
IC50 (HT29 Colon carcinoma; Table 2, HT29 Colon): 4.55 µg/mL
more effective than cis-oxoplatin (SW480 Colon; SW480, Na salt versus cis-oxoplatin): about 70%
IC50 (SW480 Colon; Table 2): 2.5 µg/mL
more effective than cis-oxoplatin (SK-OV4 Ovarian cancer; SK-OV4, Na salt versus cis-oxoplatin): about 30%
IC50 (SK-OV4 Ovarian cancer; Table 2, SK-OV4 Ovarian cancer): 12.8 µg/mL
more effective than cis-oxoplatin (SIM Sarcoma; SIM, Na salt versus cis-oxoplatin): about 30%
IC50 (SIM Sarcoma; Table 2, SIM Sarcoma): 11.2 µg/mL
IC50 (SK-OV3 Ovarian cancer): 22 µg/mL
more effective than cis-oxoplatin (PC3 Prostate; PC3, Na salt versus cis-oxoplatin): about 30%
% Survival (PC3 Prostate; Conc. 5 μg/ml): 109.3 ± 9.1%
% Survival (PC3 Prostate; Conc. 10 μg/ml): 77.7 ± 2.4%
% Survival (PC3 Prostate; Conc. 20 μg/ml): 33.2 ± 3.0%
% Survival (PC3 Prostate; Conc. 40 μg/ml): 0.6 ± 0.5%
IC50 (PC3 Prostate; Table 2): 5.3 µg/mL
efficiency compared with cis-oxoplatin (CRO2B Carcinoid; CRO2B, Na salt versus cis-oxoplatin): less efficient
IC50 (CRO2B Carcinoid; Table 2): 10.1 µg/mL
IC50 (U 373 MG Astrocytoma): 18 µg/mL
efficiency compared with cis-oxoplatin (CaCo-2 Colon; CaCO-2, Na salt versus cis-oxoplatin): less efficient
IC50 (CaCo-2 Colon; Table 2): 2.22 µg/mL
IC50 (BxPC3 Pancreatic cancer; Table 2, BxPC3 Pancreatic carcinoma): 12 µg/mL
IC50 (T47D Breast cancer; Table 2, T47D Breast cancer): 18 µg/mL

cis-diammoniumdichlorodihydroxoplatinum(IV) Calcium Salt [Oxoplatin Ca]
IC50 (Du145 Prostate; Table 4, formazan test): 14.5 µg/mL
IC50 (HT29 Colon carcinoma; Table 4, HT29 Colon, formazan test): 8.0 µg/mL
IC50 (SW480 Colon; Table 4, formazan test): 2.5 µg/mL
IC50 (MDA-MB-435 Breast): 12.0 µg/mL
IC50 (Colo205 Colon carcinoma; Table 4, Colo205 Colon, formazan test): 13.5 µg/mL
IC50 (BT20 Breast): 3.5 µg/mL
IC50 (CRO2B Carcinoid; Table 4, formazan test): 2.20 µg/mL
IC50 (CaCo-2 Colon; Table 4, formazan test): 0.87 µg/mL
IC50 (BxPC3 Pancreatic cancer; Table 4, BxPC3 Pancreas, formazan test): 30.0 µg/mL
IC50 (T47D Breast cancer; Table 4, T47D Breast, formazan test): 3.6 µg/mL
IC50 (±SEM) mean value for all cell lines (10 cell lines (Table 4)): 9.1 ± 2.8 µg/mL
